Measurements from paper PMC3818835, “What Goes around Comes around-A Comparative Study of the Influence of Chemical Modifications on the Antimicrobial Properties of Small Cyclic Peptides” (Pharmaceuticals, 2013).
Converted amounts (≈) assume the structure as drawn. Numbered stars: 1 amine (or outer) side, 2 acyl side, 3 side chain; on linkers, the order of the positions; unused ones are H or OH. Square brackets hold non-standard residues; d marks the D form. Peptide text beside a SMILES is read from it. * marks the point of attachment. 6FAM = O=C1OC2(c3ccc(O)cc3Oc3cc(O)ccc32)c2cc(C(=O)*)ccc21; X1 = COc1ccc2c(CC(N[*:1])C(=O)[*:2])cc(=O)oc2c1; NBD = O=[N+]([O-])c1ccc(*)c2nonc12; X2 = O=c1cc(C*)c2cc(Br)c(O)cc2o1; Dap = NC[C@H](N)C(=O)O

How the values were obtained:
[1] = tested on: B. subtilis DSM 347; assay type: cell-based; conditions: DSM 347, 18 h
Method: (§1) The minimal inhibitory concentration (MIC) of the cyclic hexapeptides was tested against Gram-negative E. coli DH5α and Gram-positive B. subtilis DSM 347 using a microdilution technique in 96 well microtiter plates as described previously. Briefly, cells from an overnight culture were inoculated 1:100 in LB medium, grown to mid log phase (OD600 0.4 ± 0.1) and adjusted to 5 × 10^5 cells/well. Final peptide concentrations ranged from 0.05 µM to 100 µM (2-fold dilutions) and were tested in triplicates in at least three independent experiments. The MIC was determined after 18 h of incubation at 37 °C, 180 rpm being the lowest peptide concentration at which no visible bacterial growth can be detected photometrically (A600, Safire Microplate Reader, Tecan, Männedorf, Germany).

[2] = tested on: E. coli DH5α; assay type: cell-based; conditions: 18 h
Method: as §1

[3] = tested on: human erythrocytes; assay type: cell-based; conditions: pH 7.4
Method: The lytic effect of selected peptides upon human erythrocytes was determined as described before. Briefly, cells were washed thoroughly in Tris buffer (10 mM Tris, 150 mM NaCl, pH 7.4). Suspensions with 2.5 × 10^8 cells/mL were incubated with peptides at a final concentration of 100 µM for 30 min at 37 °C. After centrifugation, 0.6% NH4OH was added to an aliquot of the supernatant and hemoglobin absorption (A) was measured at 540 nm (Jasco V-550). Whole cell suspensions exposed to NH4OH were used as positive control (A100%) and preparations without peptide served as negative control (A0%), respectively. Data were collected in three independent experiments.

[4] = Hydrophobicity: retention time tR by reversed phase HPLC; assay type: physicochemical; conditions: chromatographic, RP-HPLC ProntoSil 300-5-C18-H (250 × 4.6 mm, 5 µm); peptide 1 mg/mL in phase A (0.1% TFA in water); B 0.1% TFA in 80% acetonitrile; linear gradient 5%–95% B over 40 min at 22 °C; used as a measure of hydrophobicity
Method: The retention time tR of the cyclic hexapeptides was determined by HPLC on a Jasco LC-2000Plus using a ProntoSil 300-5-C18-H column (250 × 4.6 mm, 5 µm) (Bischoff Chromatography). Peptide concentration was 1 mg/mL in mobile phase A (0.1% TFA in deionized water), mobile phase B consisted of 0.1% TFA in 80% acetonitrile in deionized water. For chromatographic analyses a linear gradient of 5%–95% phase B over 40 min at 22 °C was applied.
To investigate the influence of fluorescent label modification and amino acid substitution on the hydrophobicity/amphipathicity of the cyclic hexapeptide derivatives, we determined the retention time tR by reversed phase HPLC (Figure 2). The method monitors the retention of compounds by the hydrophobic HPLC stationary phase. Differences in tR reflect differences in the effective hydrophobicity of the molecule which is related to the intrinsic hydrophobicity of the individual residues and their ability to form hydrophobic domains for interaction with the HPLC matrix. At the same time, hydrophilic residues will locate at the opposite side of the molecule. Reduction in the size or positioning of cationic residues next to the hydrophobic molecular surface area would reduce amphipathicity. tR-measurements have successfully been applied to characterize amphipathic helices, β-structured peptides and different sets of our small cyclic R-, W-rich peptides.

[5] = tested on: E. coli DH5α; experiment: Propidium iodide influx (membrane permeabilisation), flow cytometry; assay type: cell-based; conditions: FACS, PI 10 µg/mL, peptide at respective MIC, LB, 5 × 10^5 cells/mL, 0-90 min at 37 °C
Method: (§2) Membrane permeabilisation was determined by fluorescence activated cell sorting (FACS) on a FACSCalibur (Becton Dickinson) equipped with a 488 nm argon laser. Propidium iodide (PI, 10 µg/mL) and peptides at a final concentration corresponding to the respective MIC were dissolved in LB. Cells were grown to mid log phase (OD600 0.4 ± 0.1) and added to the solution just before the measurement at a concentration of 5 × 10^5 cells/mL. Cells were sorted on the basis of PI fluorescence which increases upon intercalation with DNA. This can only be observed in the case of disturbed membrane integrity as PI cannot translocate across intact lipid bilayers. Cell fluorescence was measured after incubation time points of 0, 5, 10, 15, 20, 30, 60 and 90 min at 37 °C, 180 rpm. A minimum of 20,000 cells was recorded for each preparation. CellQuest^TM Pro software (Becton Dickinson) was used for data acquisition and results were analyzed with FCS Express V3 (De Novo Software, Los Angeles, CA, USA).

[6] = tested on: B. subtilis DSM 347; experiment: as above; assay type: cell-based; conditions: FACS, PI 10 µg/mL, peptide at respective MIC, LB, 5 × 10^5 cells/mL, 0-90 min at 37 °C
Method: as §2

[7] = tested on: E. coli DH5α; conditions: 5 µM, PI influx; cited from earlier work
Method: Figure 4 Bacterial membrane permeabilisation determined with flow cytometry using propidium iodide (PI). PI influx after incubation with cWFW, fluorescent-labeled and K-substituted cyclic hexapeptides was tested into B. subtilis DSM 347 (A,C) and E. coli DH5α (B,D) at respective MICs. […] Preparations without peptide were used as negative co ...

| Compound | MIC B. subtilis DSM 347 [1] [µM] | MIC E. coli DH5α [2] [µM] | Hemolysis at 100 µM [3] [%] | Retention Time tR [4] [min] | PI influx / membrane permeabilisation, E. coli [5] | PI influx / membrane permeabilisation, B. subtilis [6] | Membrane permeabilising potential, Gram-negative cells (positive control) [7] |
| --- | --- | --- | --- | --- | --- | --- | --- |
| N=C(N)NCCC[C@@H]1NC(=O)[C@H](CCCCN)NC(=O)[C@H](Cc2c[nH]c3ccccc23)NC(=O)[C@H](Cc2ccccc2)NC(=O)[C@H](Cc2c[nH]c3ccccc23)NC(=O)[C@H](CCCCN)NC1=O [cKRK] (cyclo(KRKWFW)) | 25 (≈ 23.3 µg/mL) | 12 (≈ 11.2 µg/mL) | 2 | 17.27 |  |  |  |
| N=C(N)NCCC[C@@H]1NC(=O)[C@H](CCCNC(=N)N)NC(=O)[C@H](Cc2c[nH]c3ccccc23)NC(=O)[C@H](CNc2ccc([N+](=O)[O-])c3nonc23)NC(=O)[C@H](Cc2c[nH]c3ccccc23)NC(=O)[C@H](CCCNC(=N)N)NC1=O [cW[NBD]W] (cyclo(RRRW[Dap](NBD)W)) | 25 (≈ 27.3 µg/mL) | 50 (≈ 54.5 µg/mL) | 76 | 17.90 | pronounced membrane disruption |  |  |
| N=C(N)NCCC[C@@H]1NC(=O)[C@H](CCCCN)NC(=O)[C@H](CCCCN)NC(=O)[C@H](Cc2c[nH]c3ccccc23)NC(=O)[C@H](Cc2ccccc2)NC(=O)[C@H](Cc2c[nH]c3ccccc23)NC1=O [cKKR] (cyclo(KKRWFW)) | 25 (≈ 23.3 µg/mL) | 100 (≈ 93.2 µg/mL) | 3 | 17.86 |  |  |  |
| N=C(N)NCCC[C@@H]1NC(=O)[C@H](CCCCN)NC(=O)[C@H](CCCNC(=N)N)NC(=O)[C@H](Cc2c[nH]c3ccccc23)NC(=O)[C@H](Cc2ccccc2)NC(=O)[C@H](Cc2c[nH]c3ccccc23)NC1=O [cRKR] (cyclo(RKRWFW)) | 12 (≈ 11.5 µg/mL) | 50 (≈ 48 µg/mL) | 4 | 18.60 |  |  |  |
| NCCCC[C@@H]1NC(=O)[C@H](CCCCN)NC(=O)[C@H](Cc2c[nH]c3ccccc23)NC(=O)[C@H](Cc2ccccc2)NC(=O)[C@H](Cc2c[nH]c3ccccc23)NC(=O)[C@H](CCCCN)NC1=O [cKKK] (cyclo(KKKWFW)) | 50 (≈ 45.2 µg/mL) | 100 (≈ 90.4 µg/mL) | 8 | 17.70 |  |  |  |
| COc1ccc2c(CC3NC(=O)[C@H](Cc4c[nH]c5ccccc45)NC(=O)[C@H](CCCNC(=N)N)NC(=O)[C@H](CCCNC(=N)N)NC(=O)[C@H](CCCNC(=N)N)NC(=O)[C@H](Cc4c[nH]c5ccccc45)NC3=O)cc(=O)oc2c1 (stereo partly drawn) [cW[Cu]W] (cyclo(RRRW[X1]W)) | 6 (≈ 6.52 µg/mL) | 25 (≈ 27.2 µg/mL) | 23 | 18.40 | pronounced membrane disruption | slightly higher |  |
| N=C(N)NCCC[C@@H]1NC(=O)[C@H](CCCCNC(=O)c2ccc3c(c2)C2(OC3=O)c3ccc(O)cc3Oc3cc(O)ccc32)NC(=O)[C@H](Cc2c[nH]c3ccccc23)NC(=O)[C@H](Cc2c[nH]c3ccccc23)NC(=O)[C@H](Cc2c[nH]c3ccccc23)NC(=O)[C@H](CCCNC(=N)N)NC1=O [cW3[Fluos]] (cyclo(RRWWWK(6FAM))) | >100 | >100 | 2 | 22.08 |  |  |  |
| N=C(N)NCCC[C@@H]1NC(=O)[C@H](CCCNC(=N)N)NC(=O)[C@H](CCCCNC(=O)c2ccc3c(c2)C2(OC3=O)c3ccc(O)cc3Oc3cc(O)ccc32)NC(=O)[C@H](Cc2c[nH]c3ccccc23)NC(=O)[C@H](Cc2c[nH]c3ccccc23)NC(=O)[C@H](CCCNC(=N)N)NC1=O [cW2[Fluos]] (cyclo(RRRWWK(6FAM))) | >100 | >100 | 9 | 19.28 |  |  |  |
| COc1ccc2c(CC3NC(=O)[C@H](Cc4c[nH]c5ccccc45)NC(=O)[C@H](CCCCN)NC(=O)[C@H](CCCNC(=N)N)NC(=O)[C@H](CCCCN)NC(=O)[C@H](Cc4c[nH]c5ccccc45)NC3=O)cc(=O)oc2c1 (stereo partly drawn) [cR2[Cu]] (cyclo(KRKW[X1]W)) | 6 (≈ 6.18 µg/mL) | 50 (≈ 51.5 µg/mL) | 4 | 17.20 | pronounced membrane disruption |  |  |
| N=C(N)NCCC[C@@H]1NC(=O)[C@H](CCCCN)NC(=O)[C@H](Cc2c[nH]c3ccccc23)NC(=O)[C@H](CNc2ccc([N+](=O)[O-])c3nonc23)NC(=O)[C@H](Cc2c[nH]c3ccccc23)NC(=O)[C@H](CCCCN)NC1=O [cR2[NBD]] (cyclo(KRKW[Dap](NBD)W)) | 12 (≈ 12.4 µg/mL) | 50 (≈ 51.7 µg/mL) | 26 | 17.47 | No E. coli membrane permeabilisation could be detected |  |  |
| N=C(N)NCCC[C@@H]1NC(=O)[C@H](CCCCN)NC(=O)[C@H](Cc2c[nH]c3ccccc23)NC(=O)[C@H](CSCc2cc(=O)oc3cc(O)c(Br)cc23)NC(=O)[C@H](Cc2c[nH]c3ccccc23)NC(=O)[C@H](CCCCN)NC1=O [cR2[S-Cu]] (cyclo(KRKWC(X2)W)) | 25 (≈ 28.5 µg/mL) | 50 (≈ 57.1 µg/mL) | 5 | 17.49 |  |  |  |
| N=C(N)NCCC[C@@H]1NC(=O)[C@H](Cc2c[nH]c3ccccc23)NC(=O)[C@H](Cc2ccccc2)NC(=O)[C@H](Cc2c[nH]c3ccccc23)NC(=O)[C@H](CCCCN)NC(=O)[C@H](CCCCN)NC1=O [cRKK] (cyclo(RKKWFW)) | 25 (≈ 23.3 µg/mL) | 50 (≈ 46.6 µg/mL) | 56 | 18.38 |  |  |  |
| N=C(N)NCCC[C@@H]1NC(=O)[C@H](CCCNC(=N)N)NC(=O)[C@H](Cc2c[nH]c3ccccc23)NC(=O)[C@H](CSCc2cc(=O)oc3cc(O)c(Br)cc23)NC(=O)[C@H](Cc2c[nH]c3ccccc23)NC(=O)[C@H](CCCNC(=N)N)NC1=O [cW[S-Cu]W] (cyclo(RRRWC(X2)W)) | 6 (≈ 7.18 µg/mL) | 25 (≈ 29.9 µg/mL) | 76 | 18.91 | pronounced membrane disruption | slightly higher |  |
| polymyxin B |  |  |  |  |  |  | high membrane permeabilising potential |
